Measured values taken from US20240238218A1, “[…] A […] ACTIVE COMPOUND AND METHOD OF PREPARATION THEREOF” (GW Research Limited, priority 2021, published 2024).

System: DBA/2 mice
Assay: DBA/2 mouse audiogenic seizure test
Assay type: in vivo
Settings: for Clonic convulsion, Latency (s) Median / Tonic extension, Latency (s) Median / Wild running, Latency (s) Median: bell maximum 60 seconds; for Mice with a rectal temperature below 35.0° C / Tremor noted (number of mice): group of 10
Description: The DBA/2 audiogenic seizure test, which detects anticonvulsant activity, follows that described by Dürmüller et al. (NeuroReport, vol. 4, no. 6, pages 683-686, 1993).
60 male DBA/2 mice (3-4 weeks old) were included in the experiment (weight range 8-11 g at the beginning of the experiment). Animals were acclimatized to the test facility for 1 day after delivery and randomly housed in groups of 5 in macrolon cages on wood litter with free access to food and water.
Mice were individually transferred (at 3-5 minutes intervals) from the preparation room into an adjacent experimental room and body temperature was measured using a rectal thermometer. Immediately after, they were placed in a Plexiglas jar (Diameter=40 cm; Height=35 cm) mounted with an electric bell. Upon activating the bell, the occurrences and latencies to wild running fits, clonic and tonic seizures were measured. Deaths were also recorded. The bell was activated until a tonic seizure occured or for a maximum of 60 seconds.
The experiment included 6 groups (10 mice were studied per group). Experimenters were blinded to the treatment groups.
The test substance was evaluated at 4 doses, administered i.p. (10 mL/kg) 30 or 60 minutes before the test, and compared with a vehicle control group. Doses and pre-treatment times were based on previous pharmacokinetic data.
Test compound: Compound I dissolved in 5% ethanol, 10% Kolliphor HS15, 85% physiological saline.
Vehicle control: 5% ethanol, 10% Kolliphor HS15, 85% physiological saline.
Reference: Valproate (180 mg/kg), dissolved in 5% ethanol, 10% Kolliphor HS15, 85% physiological saline.
Quantitative data (latencies) with the test substance were analyzed by comparing treated groups with vehicle control using Kruskal-Wallis test followed by Dunn's multiple comparisons test. Quantitative data with the reference substance were analyzed using Mann-Whitney U test.
Quantal data (frequencies) were analyzed by comparing treated groups with vehicle control using Fisher's Exact Probability tests.

[1] = 20 mg/kg i.p., 30 min before the test
[2] = 50 mg/kg i.p., 30 min before the test
[3] = 100 mg/kg i.p., 60 min before the test
[4] = 100 mg/kg i.p., 60 min before the test, mice with rectal temperature below 35.0° C removed
[5] = 200 mg/kg i.p., 60 min before the test
[6] = 200 mg/kg i.p., 60 min before the test, mice with rectal temperature below 35.0° C removed

Q: `C=C(C)[C@@H]1CC(O)C(C)=C[C@H]1c1c(O)cc(Br)cc1O` (single isomer, unassigned) [Compound I] was tested. Which “Clonic convulsion, Latency, Compared with Vehicle (i.p.) %” value (shortened to “Clonic convulsion, Latency … (i.p.) %”) [1] did it give?
A: +44%

Q: And the “Clonic convulsion, Presence, %” value [1]?
A: 70%

Q: And the “Clonic convulsion, Presence, Compared with Vehicle (i.p.) %” value (shortened to “Clonic convulsion, Presence … (i.p.) %”) [1]?
A: −30%

Q: What about the “Clonic convulsion, Presence, Total” value [1] of the same compound?
A: 7/10

Q: What about the “Death, Presence, %” value [1] of the same compound?
A: 20%

Q: What about the “Death, Presence, Compared with Vehicle (i.p.) %” value (“Death, Presence … (i.p.) %” below) [1] of the same compound?
A: −50%

Q: What about the “Death, Presence, Total” value [1] of the same compound?
A: 2/10

Q: And the “Tonic extension, Latency, Compared with Vehicle (i.p.) %” value (from here on “Tonic extension, Latency … (i.p.) %”) [1]?
A: +461%

Q: What about the “Tonic extension, Presence, %” value [1] of the same compound?
A: 40%

Q: What about the “Tonic extension, Presence, Compared with Vehicle (i.p.) %” value (“Tonic extension, Presence … (i.p.) %” below) [1] of the same compound?
A: −60%

Q: What about the “Tonic extension, Presence, Total” value [1] of the same compound?
A: 4/10

Q: What about the “Wild running, Latency, Compared with Vehicle (i.p.) %” value (“Wild running, Latency … (i.p.) %” below) [1] of the same compound?
A: +55%

Q: And the “Wild running, Presence, %” value [1]?
A: 80%

Q: And the “Wild running, Presence, Compared with Vehicle (i.p.) %” value (“Wild running, Presence … (i.p.) %” below) [1]?
A: −20%

Q: And the “Wild running, Presence, Total” value [1]?
A: 8/10

Q: What about the “Clonic convulsion, Latency (s) Median” value [1] of the same compound?
A: 9.5 s

Q: What about the “Tonic extension, Latency (s) Median” value [1] of the same compound?
A: 60.0 s

Q: And the “Wild running, Latency (s) Median” value [1]?
A: 5.1 s

Q: And the “Clonic convulsion, Latency … (i.p.) %” value [2]?
A: +809%

Q: And the “Clonic convulsion, Presence, %” value [2]?
A: 40%

Q: And the “Clonic convulsion, Presence … (i.p.) %” value [2]?
A: −60%

Q: And the “Clonic convulsion, Presence, Total” value [2]?
A: 4/10

Q: What about the “Death, Presence, %” value [2] of the same compound?
A: 0%

Q: What about the “Death, Presence … (i.p.) %” value [2] of the same compound?
A: −100%

Q: What about the “Death, Presence, Total” value [2] of the same compound?
A: 0/10

Q: What about the “Tonic extension, Latency … (i.p.) %” value [2] of the same compound?
A: +461%

Q: And the “Tonic extension, Presence, %” value [2]?
A: 0%

Q: And the “Tonic extension, Presence … (i.p.) %” value [2]?
A: −100%

Q: What about the “Tonic extension, Presence, Total” value [2] of the same compound?
A: 0/10

Q: And the “Wild running, Latency … (i.p.) %” value [2]?
A: +924%

Q: What about the “Wild running, Presence, %” value [2] of the same compound?
A: 50%

Q: And the “Wild running, Presence … (i.p.) %” value [2]?
A: −50%

Q: And the “Wild running, Presence, Total” value [2]?
A: 5/10

Q: What about the “Clonic convulsion, Latency (s) Median” value [2] of the same compound?
A: 60.0 s

Q: What about the “Tonic extension, Latency (s) Median” value [2] of the same compound?
A: 60.0 s

Q: And the “Wild running, Latency (s) Median” value [2]?
A: 33.8 s

Q: What about the “Clonic convulsion, Latency … (i.p.) %” value [3] of the same compound?
A: +809%

Q: And the “Clonic convulsion, Presence … (i.p.) %” value [3]?
A: −100%

Q: What about the “Death, Presence … (i.p.) %” value [3] of the same compound?
A: −100%

Q: What about the “Tonic extension, Latency … (i.p.) %” value [3] of the same compound?
A: +461%

Q: What about the “Tonic extension, Presence … (i.p.) %” value [3] of the same compound?
A: −100%

Q: And the “Wild running, Latency … (i.p.) %” value [3]?
A: +1718%

Q: What about the “Wild running, Presence … (i.p.) %” value [3] of the same compound?
A: −100%

Q: What about the “Clonic convulsion, Latency (s) Median” value [3] of the same compound?
A: 60.0 s

Q: And the “Tonic extension, Latency (s) Median” value [3]?
A: 60.0 s

Q: And the “Wild running, Latency (s) Median” value [3]?
A: 60.0 s

Q: What about the “Clonic convulsion, Presence, %” value [4] of the same compound?
A: 0%

Q: And the “Clonic convulsion, Presence, Total” value [4]?
A: 0/6

Q: What about the “Death, Presence, %” value [4] of the same compound?
A: 0%

Q: And the “Death, Presence, Total” value [4]?
A: 0/6

Q: And the “Tonic extension, Presence, %” value [4]?
A: 0%

Q: What about the “Tonic extension, Presence, Total” value [4] of the same compound?
A: 0/6

Q: And the “Wild running, Presence, %” value [4]?
A: 0%

Q: And the “Wild running, Presence, Total” value [4]?
A: 0/6

Q: And the “Mice with a rectal temperature below 35.0° C” value (100 mg/kg i.p.)?
A: Four mice

Q: And the “Tremor noted (number of mice)” value (100 mg/kg i.p.)?
A: 5 mice

Q: What about the “Clonic convulsion, Latency … (i.p.) %” value [5] of the same compound?
A: +809%

Q: What about the “Clonic convulsion, Presence … (i.p.) %” value [5] of the same compound?
A: −80%

Q: What about the “Death, Presence … (i.p.) %” value [5] of the same compound?
A: −100%

Q: What about the “Tonic extension, Latency … (i.p.) %” value [5] of the same compound?
A: +461%

Q: And the “Tonic extension, Presence … (i.p.) %” value [5]?
A: −100%

Q: And the “Wild running, Latency … (i.p.) %” value [5]?
A: +1718%

Q: And the “Wild running, Presence … (i.p.) %” value [5]?
A: −80%

Q: What about the “Clonic convulsion, Latency (s) Median” value [5] of the same compound?
A: 60.0 s

Q: What about the “Tonic extension, Latency (s) Median” value [5] of the same compound?
A: 60.0 s

Q: And the “Wild running, Latency (s) Median” value [5]?
A: 60.0 s

Q: And the “Clonic convulsion, Presence, %” value [6]?
A: 33%

Q: What about the “Clonic convulsion, Presence, Total” value [6] of the same compound?
A: 2/6

Q: What about the “Death, Presence, %” value [6] of the same compound?
A: 0%

Q: And the “Death, Presence, Total” value [6]?
A: 0/6

Q: And the “Tonic extension, Presence, %” value [6]?
A: 0%

Q: And the “Tonic extension, Presence, Total” value [6]?
A: 0/6

Q: What about the “Wild running, Presence, %” value [6] of the same compound?
A: 33%

Q: And the “Wild running, Presence, Total” value [6]?
A: 2/6

Q: What about the “Mice with a rectal temperature below 35.0° C” value (200 mg/kg i.p.) of the same compound?
A: Four mice

Q: What about the “Tremor noted (number of mice)” value (200 mg/kg i.p.) of the same compound?
A: 3 mice

Q: What about the “Effect on the number of deaths” value (any doses (20, 50, 100, 200 mg/kg i.p.)) of the same compound?
A: did not affect the number of deaths at any doses
